Source: US10752587B2, “Homobispiperidinyl derivatives as liver X receptor beta agonists, compositions and their use” (Merck Sharp & Dohme Corp., priority 2015, dated 2020)
pEC50: −log10 of the molar value. Like-named read-outs stand apart in the source and are kept apart here.

What was measured:
[1] = target: T1, glutathione-S-transferase (GST) tagged LXRbeta LBD (ligand binding domain) (Homo sapiens, UniProt P55055); assay: LanthaScreen TR-FRET Liver X Receptor Coactivator Assay, co-activator recruitment to LXRbeta LBD; assay type: biochemical
T1 construct: purchased Invitrogen pv4658.pps
T1 sequence (P55055 222-460 limits assumed): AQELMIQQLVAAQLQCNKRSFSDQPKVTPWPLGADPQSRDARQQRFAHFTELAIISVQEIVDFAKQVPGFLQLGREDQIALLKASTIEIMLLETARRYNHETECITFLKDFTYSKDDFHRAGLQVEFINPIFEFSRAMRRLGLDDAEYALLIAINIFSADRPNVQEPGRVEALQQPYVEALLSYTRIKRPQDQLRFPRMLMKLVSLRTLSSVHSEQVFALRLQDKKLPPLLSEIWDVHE
Method in brief: (§1)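 Efficacy (Emax) and inflection-point potency were scaled to reference agonist T0901317, acting on both LXR subtypes. Ligand-driven coactivator peptide recruitment was detected by TR-FRET after room-temperature incubation with terbium anti-GST antibody.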

[2] = target: T2, glutathione-S-transferase (GST) tagged LXRalpha LBD (ligand binding domain) (Homo sapiens, UniProt Q13133); assay: LanthaScreen TR-FRET Liver X Receptor Coactivator Assay, co-activator recruitment to LXRalpha LBD; assay type: biochemical; conditions: for pEC50: read-out: LXR alpha IP
T2 construct: purchased Invitrogen pv4655
T2 sequence (Q13133 209-447 limits assumed): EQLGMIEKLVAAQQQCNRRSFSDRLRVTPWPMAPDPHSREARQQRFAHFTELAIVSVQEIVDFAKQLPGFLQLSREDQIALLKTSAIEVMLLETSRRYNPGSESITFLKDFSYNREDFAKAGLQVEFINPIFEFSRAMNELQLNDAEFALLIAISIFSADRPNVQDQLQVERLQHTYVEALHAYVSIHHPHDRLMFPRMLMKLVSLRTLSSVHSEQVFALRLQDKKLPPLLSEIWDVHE
Method in brief: as §1

[3] = efficacy at max dose, in relation to reference dual agonist T0901317, read-out: LXR beta Activity @ max dose (%)
[4] = potency (Inflection Point, IP), co-activator recruitment to LXRbeta LBD, in relation to T0901317, read-out: LXR beta IP
[5] = efficacy at max dose, in relation to reference dual agonist T0901317, read-out: LXR alpha Activity @ max dose (%)
[6] = potency (Inflection Point, IP), co-activator recruitment to LXRalpha LBD, in relation to T0901317

Emax [1, 3] [%] | pEC50 [1, 4] | Emax [2, 5] [%] | pEC50 [2, 6] | LXR alpha IP (nM) [2, 6] | Structure (SMILES) | other results
119 | 7.09 | 31 | 5.87 |  | CN(C)C(=O)c1ccc(N2CCC(CC3CCN(C(=O)[C@@](O)(c4ccccc4)C(F)(F)F)CC3)CC2)nc1Cl [Example 7-62, 2-chloro-N,N-dimethyl-6-[4-({1-[(2S)-3,3,3-trifluoro-2-hydroxy-2-phenylpropanoyl]piperidin-4-yl}methyl)piperidin-1-yl]pyridine-3-carboxamide] | 
115 | 7.64 | 47 | 6.10 |  | CNC(=O)c1ccc(N2CCC(CC3CCN(C(=O)[C@](O)(c4ccccc4F)C(F)(F)F)CC3)CC2)nc1Cl [Example 7-145, 2-chloro-N-methyl-6-[4-({1-[(2R)-3,3,3-trifluoro-2-(2-fluorophenyl)-2-hydroxypropanoyl]piperidin-4-yl}methyl)piperidin-1-yl]pyridine-3-carboxamide] | 
21 | 6.63 | 0 |  | NO IP | COc1cccc([C@@](N)(C(=O)N2CCC(CC3CCN(c4ccc(C(=O)N(C)C)c(Cl)n4)CC3)CC2)C(F)(F)F)c1 [Example 7-114, 6-[4-({1-[(2R)-2-amino-3,3,3-trifluoro-2-(3-methoxyphenyl)propanoyl]piperidin-4-yl}methyl)piperidin-1-yl]-2-chloro-N,N-dimethylpyridine-3-carboxamide] | 
40 | 8.22 | 8 |  | NO IP | CCc1cccc([C@@](O)(C(=O)N2CCC(C)(CC3CCN(c4ccc(C(=O)N(C)C)c(Cl)n4)CC3)CC2)C(F)(F)F)c1 [Example 7-49, 2-chloro-6-[4-({1-[(2R)-2-(3-ethylphenyl)-3,3,3-trifluoro-2-hydroxypropanoyl]-4-methylpiperidin-4-yl}methyl)piperidin-1-yl]-N,N-dimethylpyridine-3-carboxamide] | 
70 | 7.85 | 7 |  | NO IP | COc1cccc([C@@](O)(C(=O)N2CCC(SC3CCN(c4ccc(C(=O)N(C)C)c(Cl)n4)CC3)CC2)C(F)(F)F)c1 [Example 9-2, 2-chloro-N,N-dimethyl-6-[4-({1-[(2R)-3,3,3-trifluoro-2-hydroxy-2-(3-methoxyphenyl)-propanoyl]piperidin-4-yl}sulfanyl)-piperidin-1-yl]-pyridine-3-carboxamide] | 

Continued, compound first:

Structure (SMILES) | Emax [1, 3] [%] | pEC50 [1, 4] | Emax [2, 5] [%] | pEC50 [2, 6] | LXR alpha IP (nM) [2, 6] | other results
CC(C)c1cccc([C@@](O)(C(=O)N2CCC(CC3CCN(c4ccc(C(=O)N(C)C)c(Cl)c4)CC3)CC2)C(F)(F)F)c1 [Example 2-95, 2-chloro-N,N-dimethyl-4-{4-[(1-{(2R)-3,3,3-trifluoro-2-hydroxy-2-[3-(1-methylethyl)phenyl]propanoyl}piperidin-4-yl)methyl]piperidin-1-yl}benzamide] | 50 | 8.22 | 15 | 6.47 |  | 
CN(C)C(=O)c1ccc(N2CCC(CC3CCN(C(=O)[C@](N)(c4ccccc4)C(F)(F)F)CC3)CC2)cc1Cl (stereo in doubt) [Example 2-101, 4-[4-({1-[2-amino-3,3,3-trifluoro-2-phenyl-propanoyl]piperidin-4-yl}methyl)piperidin-1-yl]-2-chloro-N,N-dimethyl-benzamide] | 106 | 6.94 | 21 | 5.75 |  | 
CN(C)C(=O)c1ccc(N2CCC(OC3CCN(C(=O)C(F)(F)F)CC3)CC2)cc1Cl [Example 2-29, 2-chloro-N,N-dimethyl-4-(4-{[1-(trifluoro-acetyl)piperidin-4-yl]oxy}piperidin-1-yl)benzamide] | 65 | 5.42 | 25 |  | NO IP | 
CN(C)C(=O)c1ccc(N2CCC(CC3CCN(C(=O)C(O)(c4ccnc(C(F)(F)F)c4)C(F)(F)F)CC3)CC2)cc1Cl (stereo not shown) [Example 2-40, 2-chloro-N,N-dimethyl-4-{4-[(1-{3,3,3-trifluoro-2-hydroxy-2-[2-(trifluoromethyl)pyridin-4-yl]propanoyl}piperidin-4-yl)methyl]piperidin-1-yl}benzamide] | 34 | 7.14 | 9 |  | NO IP | 
CN(C)C(=O)c1ccc(N2CCC(CC3CCN(C(=O)C(O)(c4ccccc4)C4CCC4)CC3)CC2)nc1Cl (stereo not shown) [Example 7-97, 2-chloro-6-[4-({1-[cyclobutyl(hydroxy)phenylacetyl]piperidin-4-yl}methyl)piperidin-1-yl]-N,N-dimethylpyridine-3-carboxamide] |  |  |  |  |  | EC50 ([1]; LXR beta IP (nM), potency (Inflection Point, IP), co-activator recruitment to LXRbeta LBD, in relation to T0901317): 40 nM; Emax ([1]; read-out: LXR beta Activity @ max dose (%)): 98%; EC50 ([2]; LXR alpha IP (nM), potency (Inflection Point, IP), co-activator recruitment to LXRalpha LBD, in relation to T0901317): 1180 nM; Emax ([2]; read-out: LXR alpha Activity @ max dose (%)): 38%
CN(C(=O)c1ccc(N2CCC(CC3CCN(C(=O)[C@](O)(c4ccccc4)C(F)(F)F)CC3)CC2)cc1Cl)C1CC1 [Example 4-11, 2-chloro-N-cyclopropyl-N-methyl-4-[4-({1-[(2R)-3,3,3-trifluoro-2-hydroxy-2-phenylpropanoyl]piperidin-4-yl}methyl)piperidin-1-yl]benzamide] | 74 | 7.37 | 38 | 6.40 |  | 
COc1cccc([C@@](O)(C(=O)N2CCC(CC3CCN(c4ccc(C(=O)N(C)C)cc4)CC3)CC2)C(F)F)c1 [Example 2-130, 4-[4-({1-[(2R)-3,3-difluoro-2-hydroxy-2-(3-methoxy-phenyl)propanoyl]piperidin-4-yl}methyl)piperidin-1-yl]-N,N-dimethyl-benzamide] | 31 | 6.72 | 0 |  | NO IP | 
CC(C)C(O)(C(=O)N1CCC(CC2CCN(c3ccc(C(=O)N(C)C)c(Cl)c3)CC2)CC1)C(F)(F)F (stereo not shown) [Example 2-31, 2-chloro-4-[4-({1-[2-hydroxy-3-methyl-2-(trifluoro-methyl)butanoyl]piperidin-4-yl}methyl)piperidin-1-yl]-N,N-dimethyl-benzamide] | 74 | 6.11 | 24 | 5.35 |  | 
CN(C)C(=O)c1ccc(N2CCC(CC3CCN(S(=O)(=O)c4cc(F)cc(C(F)(F)F)c4)CC3)CC2)cc1Cl [Example 13-15, 2-chloro-4-{4-[(1-{[3-fluoro-5-(trifluoro-methyl)phenyl]-sulfonyl}piperidin-4-yl)methyl]piperidin-1-yl}-N,N-dimethylbenzamide] |  |  |  |  |  | pEC50 ([1]; co-activator recruitment to GST-LXRbeta LBD, TR-FRET, read-out: LXR beta IP (Inflection Point, potency)): 6.77; Emax ([1]; efficacy in relation to reference dual agonist T0901317, read-out: LXR beta Activity @ max dose): 32%; LXR alpha IP (Inflection Point, potency) ([2]; co-activator recruitment to GST-LXRalpha LBD, TR-FRET): NO IP; Emax ([2]; efficacy in relation to reference dual agonist T0901317, read-out: LXR alpha Activity @ max dose): 0%
CN(C)C(=O)c1ccc(N2CCC(CC3CCN(C(=O)[C@](O)(c4cccc(OC(F)(F)F)c4)C(F)(F)F)CC3)CC2)cc1 [Example 2-144, N,N-dimethyl-4-{4-[(1-{(2R)-3,3,3-trifluoro-2-hydroxy-2-[3-(trifluoro-methoxy)phenyl]propanoyl}piperidin-4-yl)methyl]piperidin-1-yl}benzamide] | 55 | 7.11 | 14 |  | NO IP | 
O=C(c1ccc(N2CCC(CC3CCN(C(=O)[C@](O)(c4ccccc4)C(F)(F)F)CC3)CC2)cc1Cl)N1CCC(n2ccnc2)C1 (stereo partly drawn) [Example 4-19, (2R)-3-(4-{[1-(3-chloro-4-{[3-(1H-imidazol-1-yl)pyrrolidin-1-yl]carbonyl}phenyl)piperidin-4-yl]methyl}piperidin-1-yl)-1,1,1-trifluoro-3-oxo-2-phenylpropan-2-ol] | 43 | 6.85 | 25 | 6.12 |  | 
